This series is described as follows: collision cross section in nitrogen (drift tube, single-field); higher = larger gas-phase ion size.
The mark [1] stands for this setting: ion type: [M+Na], ion source: ESI, ion mode: Positive.
Where [2] appears, read: ion type: [M+H], ion source: APCI, ion mode: Positive.
Where [3] appears, read: ion type: [M+H], ion source: ESI, ion mode: Positive.
The mark [4] stands for this setting: ion type: [M-H], ion source: ESI, ion mode: Negative.
[5] abbreviates: ion type: [M+], ion source: APCI, ion mode: Positive.

23 compounds from the supplement of paper PMC12317010 can be followed below.

Where a name gives a salt, the structure may show the parent alone.
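Note: chemical standards at 10 µM analysed by drift tube IMS-QTOF MS in about 3.95 torr nitrogen, mean of duplicate injections differing ≤1%, mass error below 10 ppm.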

Turning to `CCC(=O)Oc1ccc(/C(CC)=C(\CC)c2ccc(OC(=O)CC)cc2)cc1` [Diethylstilbestrol dipropionate], the “collision cross section in nitrogen” value under setting [1] is 193.9 Å². Take `CC(C)(Oc1ccc(CCNC(=O)c2ccc(Cl)cc2)cc1)C(=O)O` [Bezafibrate]: the “collision cross section in nitrogen” value by setting is: under setting [2], 178.5 Å²; under setting [3], 177.8 Å²; under setting [1], 189 Å².

In the case of `Cc1ncc[nH]1` [2-Methylimidazole], under setting [4], the “collision cross section in nitrogen” value is 112.8 Å². In the case of `CC(C)C[C@H](NC(=O)OCC1c2ccccc2-c2ccccc21)C(=O)O` [N-(9-Fluorenylmethoxycarbonyl)-L-leucine], the “collision cross section in nitrogen” value under setting [1] is given as 184.7 Å².

Regarding `C1CCC(NC2CCCCC2)CC1` [Dicyclohexylamine], the “collision cross section in nitrogen” value reads like this: under setting [2], 147.6 Å²; under setting [3], 146.9 Å².

Turning to `CC[N+](CC)(CC)Cc1ccccc1` [Benzyl trialkyl ammonium compound C2:C2:C2 (BTAAC C2:C2:C2)], for the setting “ion source: ESI, ion mode: Positive, ion type: [M]+ (permanent cation)”, the “collision cross section in nitrogen” value came to 143.1 Å². For `N#CCC#N` [Propanedinitrile], under setting [4], the “collision cross section in nitrogen” value is recorded as 103.8 Å². For `CC(C)c1cccc(C(C)C)c1O` [Propofol], the “collision cross section in nitrogen” value under setting [4] was 143.5 Å². With `CCCCC(CC)COC(=O)CCCCCCCC(=O)OCC(CC)CCCC` (centres undefined) [Bis(2-ethylhexyl) nonanedioate], under setting [1], the “collision cross section in nitrogen” value is given as 222.3 Å². For the compound `CC1(C)CN=C(NN=C(C=Cc2ccc(C(F)(F)F)cc2)C=Cc2ccc(C(F)(F)F)cc2)NC1` [Hydramethylnon], the “collision cross section in nitrogen” value reads like this: under setting [2], 239.4 Å²; under setting [3], 240.6 Å²; under setting [1], 250.1 Å²; under setting [5], 226.3 Å²; under setting [4], 234.7 Å². Take `CCCCN(CCCC)CCCCCCN(CCCC)CCCC` [N,N,N',N'-Tetrabutyl-1,6-hexanediamine]: under setting [3], the “collision cross section in nitrogen” value worked out at 193.6 Å². `Oc1cc(Cl)c(Cl)cc1Cl` [2,4,5-Trichlorophenol sodium salt]: the “collision cross section in nitrogen” value under setting [4] is recorded as 128.6 Å². On to `O=c1cc[nH]c(=S)[nH]1` [Thiouracil], for which the “collision cross section in nitrogen” value under setting [4] is listed as 116.1 Å².

Consider `CCCCOC(=O)[C@@H](C)Oc1ccc(Oc2ccc(C(F)(F)F)cn2)cc1`, for which the “collision cross section in nitrogen” value is, setting by setting: under setting [3], 195.5 Å²; under setting [1], 194.5 Å².

With `CC1=CP(=O)(c2ccccc2)CC1` (centres undefined) [2,3-Dihydro-4-methyl-1-phenyl-1H-phosphole 1-oxide], the “collision cross section in nitrogen” value is, setting by setting: under setting [2], 141.7 Å²; under setting [3], 141.3 Å²; under setting [1], 160.6 Å²; under setting [5], 138 Å². For the compound `O=C(O)c1ccccc1O` [Salicylic acid], the “collision cross section in nitrogen” value under setting [4] is 121.2 Å². Consider `O=C1CCCN1C1CCCCC1` [1-Cyclohexylpyrrolidin-2-one], for which the “collision cross section in nitrogen” value under setting [2] is 139.2 Å², the “collision cross section in nitrogen” value under setting [3] was 140.3 Å² and the “collision cross section in nitrogen” value under setting [1] is 157.7 Å².

In the case of `O=c1[nH]c2ccc(S(=O)CCN3CCC(Cc4ccc(F)cc4)CC3)cc2o1` (centres undefined) [Besonprodil], the “collision cross section in nitrogen” value was 203.6 Å² under setting [2], 203.4 Å² under setting [3], 202 Å² under setting [1] and 188.5 Å² under setting [4]. With `CC(=O)[C@@]1(O)CC[C@H]2[C@@H]3C[C@H](C)C4=CC(=O)C=C[C@]4(C)[C@@]3(F)[C@@H](O)C[C@@]21C` [Fluorometholone], the “collision cross section in nitrogen” value runs as follows: under setting [2], 186.6 Å²; under setting [1], 211.3 Å². As to `Nc1ccc(S(=O)(=O)c2ccc(N)cc2)cc1` [Dapsone], the “collision cross section in nitrogen” value runs as follows: under setting [2], 155.5 Å²; under setting [3], 155 Å²; under setting [1], 170.7 Å²; under setting [4], 157.9 Å². Take `O=C(O)c1ccc(C(=O)O)c(C(=O)O)c1` [1,2,4-Benzenetricarboxylic acid]: under setting [4], the “collision cross section in nitrogen” value was 136.9 Å². `CC(C)(C)c1cc(-n2nc3ccccc3n2)c(O)c(C(C)(C)C)c1` [2-(2'-Hydroxy-3',5'-di-tert-butylphenyl)benzotriazole]: the “collision cross section in nitrogen” value is on record as 186 Å² under setting [5] and 192.5 Å² under setting [4]. On to `Nc1cc(C(=O)O)ccc1Cl` [3-Amino-4-chlorobenzoic acid], for which, under setting [4], the “collision cross section in nitrogen” value came out at 135.4 Å².
